{
  "source": "patent US12569474B2",
  "about": "“Compositions and methods for treating anemia” (Akebia Therapeutics, Inc., priority 2013, dated 2026)",
  "key": {"[1]": {"system": "EPO production in Hep3B cells", "assay": "In Vitro EPO Induction Assay (secreted EPO immunoassay)", "type": "cell-based, human", "protocol": "(§1) Materials and Methods: Cell Culture: Human hepatocellular carcinoma (Hep3B) cells were obtained from the American Type Culture Collection (ATCC, Mannassas, VA) and cultured according to ATCC recommendations. Cells were cultured at 37° C. in an atmosphere of 95% air and 5% C02 in a humidified incubator. Compound 13 was diluted to a stock concentration of 50 mM in DMSO (Sigma).\n(§2) Cell Treatments: Hep3B cells were plated on 24 well plates. Subsets of Hep3B cultures were transfected with a HIF reporter plasmid (pHRE-luciferase) overnight. (See Sheta, et al., Oncogene. 2001 Nov. 15; 20(52):7624-34.) Cells were exposed to vehicle (1:1000 DMSO) or test Compound 13 at 50 m for 18 hours at 37° C. in an atmosphere of 95% air and 5% CO2 in a humidified incubator.\n(§3) Analysis: After 48-hour culture, cell supernatants were subsequently collected, centrifuged at 15,000×g for 15 minutes at 4° C. to sediment debris.\nIn Vitro EPO Induction Assay: Secreted EPO levels were assayed by specific immunoassay (MesoScale Discovery, Gaithersburg, MD) in accordance with manufacturer's instructions.\n(§4) Compound 13 was assayed in duplicate. Fold change over the vehicle control was calculated. Compound 13 was tested at a concentration of 50 m. […] Resulting values for the In Vitro EPO Induction Assay, and In Vitro HIF Prolyl Hydroxylase Inhibition Assay are shown in Table 1 and Table 2."}, "HIF prolyl hydroxylase": {"system": "HIF prolyl hydroxylase", "assay": "In Vitro HIF Prolyl Hydroxylase Inhibition Assay (HRE luciferase reporter)", "type": "cell-based, human", "protocol": "as §1, §2, §3\nIn Vitro HIF Prolyl Hydroxylase Inhibition Assay: Cell lysates were assayed using the dual luciferase reporter-assay (Promega, Madison, WI, USA). Observed firefly luciferase activity was normalized to a co-transfected Renilla luciferase.\nas §4"}, "healthy male adults [2]": {"system": "healthy male adults", "assay": "Phase 1a single ascending dose (SAD) study, EPO response", "type": "in vivo, human"}, "healthy male adults [3]": {"system": "healthy male adults", "assay": "Phase 1b multiple ascending dose (MAD) study, EPO response", "type": "in vivo, human"}, "healthy adult males": {"system": "healthy adult males", "assay": "Phase I clinical trials in healthy adult males (overall)", "type": "in vivo, human", "from_the_text": "This was a surprising result for a number of reasons. […] Thus, particularly with regard to patients having a disease or condition associated with kidney impairment, a person of skill in the art would not expect that administration of a compound provided herein could cause an increase in a patient's serum hemoglobin levels while also mimicking the diurnal variation of serum EPO levels in healthy individuals and without raising the patients' baseline serum EPO levels."}, "[4]": {"system": "patients having anemia secondary to CKD", "assay": "Compound 1 at 500 mg in patients having anemia secondary to CKD: EPO levels and half-life over 24 hours", "type": "in vivo, human", "from_the_text": "Current treatment of anemia associated with chronic kidney disease (CKD) with erythropoiesis-stimulating agents (ESAs) can lead to supraphysiological levels of circulating erythropoietin (EPO) that persist for days, a profile that may be associated with increased cardiovascular side effects and thromboembolic events. […] In a randomized double-blind, placebo-controlled Phase 2a trial, 93 patients with CKD stage 3, 4, or 5 (not on dialysis) received placebo or Compound 1 in the following dose groups: 240, 370, 500, or 630 mg once daily for 6 weeks. […]"}, "[5]": {"system": "patients with CKD stage 3, 4, or 5 (not on dialysis)", "assay": "Randomized double-blind, placebo-controlled Phase 2a trial, 6 weeks", "type": "in vivo, human", "from_the_text": "Current treatment of anemia associated with chronic kidney disease (CKD) with erythropoiesis-stimulating agents (ESAs) can lead to supraphysiological levels of circulating erythropoietin (EPO) that persist for days, a profile that may be associated with increased cardiovascular side effects and thromboembolic events. […] In a randomized double-blind, placebo-controlled Phase 2a trial, 93 patients with CKD stage 3, 4, or 5 (not on dialysis) received placebo or Compound 1 in the following dose groups: 240, 370, 500, or 630 mg once daily for 6 weeks. […] Erythropoietin was measured at baseline, week 2, end of treatment and follow up.\nIn a randomized double-blind, placebo-controlled Phase 2a clinical trial, 93 patients with CKD stage 3, 4, or 5 (not on dialysis) received placebo or Compound 1 in the following dose groups: 240, 370, 500, or 630 mg once daily for 6 weeks. […] TIBC and serum iron levels were measured at baseline, week 2, week 4, end of treatment (week 6) and follow up.\nIn a randomized double-blind, placebo-controlled Phase 2a trial, 93 patients with CKD stage 3, 4, or 5 (not on dialysis) received placebo or Compound 1 in the following dose groups: 240, 370, 500, or 630 mg once daily for 6 weeks."}, "[6]": {"system": "patients with Stage 3 or 4 CKD", "assay": "Phase 2a dose escalation study, 28 days", "type": "in vivo, human", "protocol": "In a Phase 2a dose escalation study, 10 CKD patients received Compound 1 once daily for 28 days. Dosing began at 400 mg in CKD Stage 3 patients and 300 mg in CKD Stage 4 patients."}, "[7]": {"assay": "Clinical data obtained to date (summary over studies)", "type": "in vivo, human", "from_the_text": "Furthermore, this is achieved with a modest increase in the daily peak level of EPO, but with no increase in basal (pre-dose) levels (in a manner that mimics the physiologic diurnal response in healthy individuals)."}, "[8]": {"conditions": "240, 370, 500, or 630 mg once daily for 6 weeks, all dose groups, ANOVA p<0.0001"}},
  "note": "“Also recorded” adds a separate entry of the source.",
  "data": [
    {"smiles": "NCCNC(=O)c1ncccc1O", "note": "[Compound 13, N-(2-aminoethyl)-3-hydroxy-pyridine-2-carboxamide]", "values": [
      {"measurement": "Mean [EPO]", "setting": "[1]; Compound 13, 18 hours, assayed in duplicate, vehicle 3.0736", "value": 8.9137, "unit": "mIU/mL"},
      {"measurement": "Fold Change (EPO, over vehicle control)", "setting": "[1]; Compound 13, inactive if ≤1.0 fold over control", "value": 2.9001},
      {"measurement": "EPO production (result in words)", "setting": "[1]; vs DMSO vehicle", "value": "increase EPO production"},
      {"measurement": "Mean HIF PH Inhibition Activity (Relative Luciferase)", "setting": "HIF prolyl hydroxylase; Hep3B cells transfected with pHRE-luciferase, Compound 13 at 50 µM, firefly normalized to Renilla, vehicle 1", "value": 3.6},
      {"measurement": "HIF prolyl hydroxylase enzyme activity (result in words)", "setting": "HIF prolyl hydroxylase; Hep3B cells, 50 µM, vs DMSO vehicle", "value": "inhibit HIF prolyl hydroxylase enzyme activity"},
      {"measurement": "Fold Change (HIF PH inhibition activity, over vehicle control)", "setting": "HIF prolyl hydroxylase; Hep3B cells, Compound 13 at 50 µM, inactive if ≤1.0 fold over control", "value": 3.6}
    ]},
    {"smiles": "O=C(O)CNC(=O)c1ncc(-c2cccc(Cl)c2)cc1O", "note": "[Compound 1, {[5-(3-chlorophenyl)-3-hydroxypyridine-2-carbonyl]amino}acetic acid]", "values": [
      {"measurement": "EPO increase compared to placebo", "setting": "healthy male adults [2]; 600 mg cohort, 8 hours, p=0.034", "value": "significant increase"},
      {"measurement": "EPO rise compared to placebo", "setting": "healthy male adults [2]; 900 and 1200 mg groups, 8, 12, 18, and 24 hours following dosing, p<0.01", "value": "significant, dose-dependent rises"},
      {"measurement": "Peak EPO concentration", "setting": "healthy male adults [3]; multiple ascending dose", "value": "dose responsive increase"},
      {"measurement": "EPO concentration prior to the next morning dose", "setting": "healthy male adults [3]; regardless of the dosing group", "value": "essentially returned to baseline"},
      {"measurement": "Rise in EPO relative to dose", "setting": "healthy adult males; Phase 1 studies", "value": "proportionate to the dose"},
      {"measurement": "Serum EPO levels after administration", "setting": "healthy adult males; healthy adult males", "value": "returned to approximately baseline levels within twenty-four hours"},
      {"measurement": "Serum hemoglobin levels", "setting": "healthy adult males; healthy adult males", "value": "able to increase serum hemoglobin levels"},
      {"measurement": "Half-life in patients with anemia secondary to CKD compared to healthy individuals", "setting": "[4]; CKD patients vs healthy adult males", "value": "approximately twice as long; also recorded: significantly longer"},
      {"measurement": "Time to return to baseline EPO levels", "setting": "[4]; dose of 500 mg, patients having anemia secondary to CKD", "value": "≤ 24", "unit": "h"},
      {"measurement": "HGB (hemoglobin) at Week 6 compared to baseline and to placebo", "setting": "[5]; [8]", "value": "able to increase serum hemoglobin levels; also recorded: significantly increased HGB; also recorded: significantly increased hemoglobin levels"},
      {"measurement": "TIBC at Week 6 compared to baseline and to placebo", "setting": "[5]; [8]", "value": "able to increase TIBC levels; also recorded: significantly increased TIBC"},
      {"measurement": "TIBC dose relation at Week 6", "setting": "[5]; 240-630 mg once daily", "value": "dose-related increase in TIBC; also recorded: dose-related increase in total iron binding capacity"},
      {"measurement": "Serum iron levels relative to baseline", "setting": "[5]; Week 6", "value": "not associated with an increase in serum iron levels; also recorded: without increasing serum iron levels"},
      {"measurement": "TSAT at Week 6", "setting": "[5]; Week 6", "value": "decrease in TSAT"},
      {"measurement": "Hepcidin expression at low doses", "setting": "[5]; low doses, such as the 240 mg group, Week 6", "value": "not accompanied by a decrease in hepcidin expression"},
      {"measurement": "Serum levels of EPO over time", "setting": "[5]; measured at baseline, week 2, end of treatment and follow up", "value": "did not increase significantly over time"},
      {"measurement": "Daily EPO levels in CKD patients", "setting": "[5]; mimicking the physiologic diurnal response", "value": "moderate daily increases in EPO levels"},
      {"measurement": "Basal (pre-dose) EPO levels", "setting": "[5]; prior to daily dose, 6 weeks", "value": "without increasing basal (pre-dose) EPO levels"},
      {"measurement": "HGB dose response", "setting": "[5]; starting from the lowest dose (240 mg)", "value": "clear dose-responsive increase in HGB"},
      {"measurement": "Hemoglobin by Day 29", "setting": "[6]; 10 CKD Stage 3 and 4 patients, once daily 28 days, start 400 mg (Stage 3) or 300 mg (Stage 4), +100 mg steps, baseline 9.91 g/dL", "value": 10.54, "unit": "g/dL"},
      {"measurement": "Ferritin by Day 29", "setting": "[6]; 10 CKD Stage 3 and 4 patients, once daily 28 days, baseline 334.10 ng/mL", "value": 271.70, "unit": "ng/mL"},
      {"measurement": "Tolerability", "setting": "[6]; patients with Stage 3 or 4 CKD, 28 days", "value": "well-tolerated"},
      {"measurement": "Hepcidin and ferritin", "setting": "[7]; dose responsive changes", "value": "decreases in hepcidin and ferritin"},
      {"measurement": "Total iron binding capacity", "setting": "[7]; dose responsive changes", "value": "increase in total iron binding capacity"},
      {"measurement": "Baseline EPO", "setting": "[7]; human, in vivo", "value": "without increasing baseline EPO"},
      {"measurement": "EPO levels (daily)", "setting": "[7]; similar to the physiologic diurnal response", "value": "modest dose-proportional daily increases in EPO levels"}
    ]}
  ]
}
